According to patent publication US8772495B2, “5-lipoxygenase-activating protein inhibitor” (Panmira Pharmaceuticals, LLC, priority 2008, dated 2014):
“And” between values parts separate entries of the source, which are not always exact repeats. Equal entries are not always repeated. Where two headings read alike, the source gives them in different places.

Columns and labels:
[1] = Plasma binding (equilibrium dialysis); assay type: in vitro ADME, Monkey (cynomologus); conditions: monkey plasma, read-out: % Bound (converted)
Procedure: Experiments were performed using equilibrium dialysis.

[2] = Liquid formulations for oral solutions/suspensions; assay type: physicochemical
Procedure: Values of pH reported were estimated based on pH indicating strips. […] Accordingly, provided in certain embodiments herein were formulations having a pH above about 9, above about 10 or of about 10. In certain embodiments, the formulation was buffered at a pH of about 10. All formulations prepared were sonicated for about 10 minutes.

[3] = Phase I study: pharmacokinetics after single and multiple oral doses; assay type: in vivo; conditions: human, plasma
Excerpt: Study Design: Single center, double-blind, randomized, placebo-controlled, single ascending dose followed by multiple ascending dose study.
Sample Size: (1) Single Dose Phase: eight (8) subjects (6 active, 2 placebo) per dose level; up to 5 dose levels are planned (a total of 40 subjects if all 5 dose levels are completed); and (2) Multiple Dose Phase: eight (8) subjects (6 active, 2 placebo) per dose level; up to 4 dose levels are planned (a total of 32 subjects if all 4 dose levels are completed).
Formulations: Compound 2 was supplied as an oral powder for reconstitution. Placebo solution matched. […] The placebo differed only in the absence of the active.
The following dosing cohorts were used:
Routes of Administration: All doses were administered orally with approximately 100 mL of water rinse. Subjects were fasted for at least 8 hours prior to dosing and for 2 hours after dosing. For BID dosing in the Multiple Dose Phase, when applicable, subjects were fasted for at least 2 hours prior to the second daily dose.
Plasma concentrations of Compound 1 were determined using a validated LC/MS method. Whole blood ionophore-stimulated leukotriene LTB4 and urinary LTE4 production were assayed by ELISA and mass spectrometry, respectively.
Analysis of Samples: Concentrations of Compound 1 was determined in plasma samples collected from subjects. Similarly, concentrations of LTB4 in plasma and urinary LTE4 were determined in blood and urine samples collected.

[4] = test system: LTB4 in Human Whole Blood; assay: Human blood LTB4 inhibition assay; assay type: cell-based; conditions: individual tests 1-8
Procedure: A non-limiting example of such a human blood LTB4 inhibition assay is as follows: Blood was drawn from consenting human volunteers into heparinized tubes and 125 μL aliquots added to wells containing 2.5 μL 50% dimethylsulfoxide (vehicle) or 2.5 μL drug in 50% dimethylsulfoxide. Samples were incubated for 15 minutes at 37° C. 2 μL calcium ionophore A23817 (from a 50 mM dimethylsulfoxide stock diluted just prior to the assay in Hanks balanced salt solution (Invitrogen)) to 1.25 mM) was added, solutions mixed and incubated for 30 minutes at 37° C. Samples were centrifuged at 1,000 rpm (˜200×g) for 10 minutes at 4° C., plasma removed and a 1:100 dilution assayed for LTB4 concentration using ELISA (Assay Designs). Drug concentrations to achieve 50% inhibition (IC50's) of vehicle LTB4 were determined by nonlinear regression (Graphpad Prism) of % inhibition versus log drug concentration.

CYP3A4 = CYP3A4 (Homo sapiens (Human), UniProt P08684); assay: Extracellular cytochrome P450 inhibition (microsomes); assay type: in vitro ADME; conditions: concentrations up to and exceeding 40 μM
Procedure: Aliquots of this mixture (89 μL) were delivered to each well of a 96-well polypropylene plate which contained an aliquot of inhibitor (1 μL). Final solvent concentrations were 1% (v/v) or less. Incubations were commenced with the addition of 10 μL β-NADPH (10 mM stock) to a final volume of 100 μL. […] Samples were centrifuged, and supernatant was transferred for LC-MS analysis.

CYP2C9 = CYP2C9 (Homo sapiens (Human), UniProt P11712); assay: Cellular cytochrome P450 induction in cryopreserved human hepatocytes; conditions: tested at 10 μM, diclofenac substrate
[5] = oral, 10 mg, multiple dose 10 mg, Day 1
[6] = oral, 10 mg, multiple dose 10 mg, Day 11
[7] = oral, 50 mg, multiple dose 50 mg, Day 1
[8] = oral, 50 mg, multiple dose 50 mg, Day 11
[9] = oral, 150 mg, multiple dose 150 mg, Day 1
[10] = oral, 150 mg, multiple dose 150 mg, Day 11
[11] = oral, 450 mg, multiple dose 450 mg, Day 1
[12] = oral, 450 mg, multiple dose 450 mg, Day 11
[13] = po, 50 mg, single dose 50 mg, oral solution
[14] = po, 150 mg, single dose 150 mg, oral solution
[15] = po, 300 mg, single dose 300 mg, oral solution
[16] = po, 600 mg, single dose 600 mg, oral solution
[17] = po, 1000 mg, single dose 1000 mg, oral solution

Chain of CYP2C9 (P11712 whole entry, looked up): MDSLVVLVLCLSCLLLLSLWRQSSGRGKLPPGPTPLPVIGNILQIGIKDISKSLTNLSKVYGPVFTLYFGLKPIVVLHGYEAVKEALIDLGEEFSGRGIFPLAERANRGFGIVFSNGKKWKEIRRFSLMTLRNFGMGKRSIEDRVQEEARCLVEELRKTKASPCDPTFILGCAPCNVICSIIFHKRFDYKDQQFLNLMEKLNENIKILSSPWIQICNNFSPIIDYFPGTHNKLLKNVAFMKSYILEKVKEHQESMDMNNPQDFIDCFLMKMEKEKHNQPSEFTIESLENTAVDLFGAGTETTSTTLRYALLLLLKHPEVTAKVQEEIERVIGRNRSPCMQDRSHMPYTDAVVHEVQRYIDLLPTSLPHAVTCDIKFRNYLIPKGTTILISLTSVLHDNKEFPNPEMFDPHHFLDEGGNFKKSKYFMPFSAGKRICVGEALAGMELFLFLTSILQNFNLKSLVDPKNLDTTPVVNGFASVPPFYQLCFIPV
Chain of CYP3A4 (P08684 whole entry, looked up): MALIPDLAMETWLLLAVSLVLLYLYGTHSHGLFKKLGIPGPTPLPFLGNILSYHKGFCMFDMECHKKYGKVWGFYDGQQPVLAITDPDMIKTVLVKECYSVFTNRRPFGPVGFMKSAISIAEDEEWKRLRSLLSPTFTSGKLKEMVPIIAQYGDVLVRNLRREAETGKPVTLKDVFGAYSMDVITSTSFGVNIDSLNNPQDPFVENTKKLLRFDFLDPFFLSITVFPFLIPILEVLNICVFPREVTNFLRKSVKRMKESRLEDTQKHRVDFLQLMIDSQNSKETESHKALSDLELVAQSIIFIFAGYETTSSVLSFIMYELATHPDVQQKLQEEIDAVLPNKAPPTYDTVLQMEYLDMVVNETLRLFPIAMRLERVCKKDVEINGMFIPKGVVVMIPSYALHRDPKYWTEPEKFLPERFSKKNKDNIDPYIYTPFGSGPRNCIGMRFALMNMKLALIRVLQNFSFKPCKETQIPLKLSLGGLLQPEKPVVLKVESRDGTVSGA

SMILES: CCOc1ccc(-c2ccc(Cn3c(CC(C)(C)C(=O)[O-])c(SC(C)(C)C)c4cc(OCc5ccc(C)cn5)ccc43)cc2)cn1.[Na+] [Compound 2, sodium 3-[3-(tert-butylsulfanyl)-1-[4-(6-ethoxy-pyridin-3-yl)benzyl]-5-(5-methyl-pyridin-2-yl-methoxy)-1H-indol-2-yl]-2,2-dimethylpropionate]
- fraction unbound at 10 μM [1]: 0.003
- Results (appearance of formulation) ([2]; 0.010 M sodium carbonate buffer, 1% v/v Lutrol and 0.05% splenda, pH 10, ~10 mg/mL): Clear solution
- Results (appearance of formulation) ([2]; 0.010 M sodium carbonate buffer, 2% v/v ethanol and 0.05% splenda, pH 10, 10 mg/mL): Clear solution
- Results (appearance of formulation) ([2]; 0.010 M sodium carbonate buffer, 5% v/v Ethanol and 0.05% splenda, pH 10, ~10 mg/mL): Some undissolved solid
- Results (appearance of formulation) ([2]; 0.010 M sodium carbonate buffer, 5% v/v Simple syrup, pH 10, 10 mg/mL): Some undissolved solid
- Results (appearance of formulation) ([2]; 0.010 M sodium carbonate buffer, pH 10, 10 mg/mL): Clear solution
- Results (appearance of formulation) ([2]; 0.5% Methylcellulose, 3.33 mg/mL): Suspension
- Cmax [3, 5]: 70 ± 10 nM
- Tmax [3, 5]: 4 ± 3.1 h
- AUC(0-t) ([3]; oral, 10 mg, multiple dose 10 mg, Day 1, read-out: AUClast): 1.1 ± 0.2 µM·h
- half-life ([3]; oral, 10 mg, multiple dose 10 mg, Day 1, read-out: t½ (converted)): 32 ± 23 h
- Cmax [3, 6]: 130 ± 50 nM
- Tmax [3, 6]: 10 ± 6.9 h
- AUC(0-t) ([3]; oral, 10 mg, multiple dose 10 mg, Day 11, read-out: AUClast): 2.4 ± 1.1 µM·h
- half-life ([3]; oral, 10 mg, multiple dose 10 mg, Day 11, read-out: t½ (converted)): 50 ± 41 h
- Cmax [3, 7]: 600 ± 200 nM
- Tmax [3, 7]: 4.2 ± 3 h
- AUC(0-t) ([3]; oral, 50 mg, multiple dose 50 mg, Day 1, read-out: AUClast): 8.3 ± 2.9 µM·h
- half-life ([3]; oral, 50 mg, multiple dose 50 mg, Day 1, read-out: t½ (converted)): 19 ± 10 h
- Cmax [3, 8]: 900 ± 100 nM
- Tmax [3, 8]: 3.2 ± 2 h
- AUC(0-t) ([3]; oral, 50 mg, multiple dose 50 mg, Day 11, read-out: AUClast): 13.5 ± 3.4 µM·h
- half-life ([3]; oral, 50 mg, multiple dose 50 mg, Day 11, read-out: t½ (converted)): 25 ± 11 h
- Cmax [3, 9]: 1400 ± 700 nM
- Tmax [3, 9]: 2.3 ± 0.8 h
- AUC(0-t) ([3]; oral, 150 mg, multiple dose 150 mg, Day 1, read-out: AUClast): 16 ± 6.8 µM·h
- half-life ([3]; oral, 150 mg, multiple dose 150 mg, Day 1, read-out: t½ (converted)): 16 ± 7.7 h
- Cmax [3, 10]: 3000 ± 1200 nM
- Tmax [3, 10]: 2 h
- AUC(0-t) ([3]; oral, 150 mg, multiple dose 150 mg, Day 11, read-out: AUClast): 33 ± 16 µM·h
- half-life ([3]; oral, 150 mg, multiple dose 150 mg, Day 11, read-out: t½ (converted)): 19 ± 13 h
- Cmax [3, 11]: 7300 ± 6000 nM
- Tmax [3, 11]: 2 h
- AUC(0-t) ([3]; oral, 450 mg, multiple dose 450 mg, Day 1, read-out: AUClast): 57 ± 39 µM·h
- half-life ([3]; oral, 450 mg, multiple dose 450 mg, Day 1, read-out: t½ (converted)): 12 ± 4 h
- Cmax [3, 12]: 9300 ± 5400 nM
- Tmax [3, 12]: 2 h
- AUC(0-t) ([3]; oral, 450 mg, multiple dose 450 mg, Day 11, read-out: AUClast): 76 ± 33 µM·h
- half-life ([3]; oral, 450 mg, multiple dose 450 mg, Day 11, read-out: t½ (converted)): 14 ± 4 h
- Cmax [3, 13]: 570 ± 300 nM
- Tmax [3, 13]: 2.2 ± 0.4 h
- AUC(0-t) ([3]; po, 50 mg, single dose 50 mg, oral solution, read-out: AUC0-24): 6.5 ± 2.2 µM·h
- half-life ([3]; po, 50 mg, single dose 50 mg, oral solution, read-out: t1/2 (converted)): 12.8 ± 2.9 h
- Cmax [3, 14]: 2200 ± 500 nM
- Tmax [3, 14]: 2.3 ± 0.5 h
- AUC(0-t) ([3]; po, 150 mg, single dose 150 mg, oral solution, read-out: AUC0-24): 21.7 ± 6.1 µM·h
- half-life ([3]; po, 150 mg, single dose 150 mg, oral solution, read-out: t1/2 (converted)): 11.1 ± 2.8 h
- Cmax [3, 15]: 3000 ± 1500 nM
- Tmax [3, 15]: 2.7 ± 1.5 h
- AUC(0-t) ([3]; po, 300 mg, single dose 300 mg, oral solution, read-out: AUC0-24): 23.6 ± 5.9 µM·h
- half-life ([3]; po, 300 mg, single dose 300 mg, oral solution, read-out: t1/2 (converted)): 9.8 ± 2.5 h
- Cmax [3, 16]: 11200 ± 7000 nM
- Tmax [3, 16]: 2.3 ± 0.5 h
- AUC(0-t) ([3]; po, 600 mg, single dose 600 mg, oral solution, read-out: AUC0-24): 90 ± 50 µM·h
- half-life ([3]; po, 600 mg, single dose 600 mg, oral solution, read-out: t1/2 (converted)): 14.1 ± 6.8 h
- Cmax [3, 17]: 18200 ± 7600 nM
- Tmax [3, 17]: 2 h
- AUC(0-t) ([3]; po, 1000 mg, single dose 1000 mg, oral solution, read-out: AUC0-24): 110 ± 49 µM·h
- half-life ([3]; po, 1000 mg, single dose 1000 mg, oral solution, read-out: t1/2 (converted)): 8.3 ± 1.1 h
- IC50 [4]: 552 nM and 645 nM and 563 nM and 410 nM and 642 nM and 482 nM and 310 nM and 444 nM
- IC90 [4]: 3440 nM and 1220 nM and 1550 nM and 810 nM and 1050 nM and 790 nM and 360 nM and 1240 nM
- apparent inhibition (CYP3A4): No apparent inhibition
- CYP2C9 induction (CYP2C9): No apparent induction
